From PubChem BioAssay AID330 (DTP/NCI, 2004)
Values joined by “and” are separate entries in the source; they are usually repeats but may differ in a detail not shown here. Equal values may be shown once. Inconclusive results and toxic doses are left out. Rule for the calls: active = survival T/C of 150% or more; inactive = T/C below 125% in these data.

System: P388 leukemia ip, CD2F1 mice, survival T/C
Experiment: NCI In Vivo Anticancer Drug Screen. Data for tumor model P388 Leukemia (intraperitoneal) in CD2F1 (CDF1) mice
Conditions: endpoint: median survival time, higher = longer survival
Method in brief: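 Mice carrying the transplanted tumor received test compound or vehicle. Survival was recorded in each group, and the value is the treated-group measurement divided by that of the vehicle-treated control group.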

[1] = dose: 100.0 mg/kg/injection, schedule: Q01DX009 (ip), vehicle: saline
[2] = dose: 60.0 mg/kg/injection, schedule: Q01DX005 (ip), vehicle: saline with Tween-80
[3] = dose: 120.0 mg/kg/injection, schedule: Q01DX005 (ip), vehicle: saline with Tween-80
[4] = dose: 240.0 mg/kg/injection, schedule: Q01DX005 (ip), vehicle: saline with Tween-80
[5] = dose: 50.0 mg/kg/injection, schedule: Q01DX009 (ip), vehicle: saline with Tween-80
[6] = dose: 100.0 mg/kg/injection, schedule: Q01DX009 (ip), vehicle: saline with Tween-80
[7] = dose: 200.0 mg/kg/injection, schedule: Q01DX009 (ip), vehicle: saline with Tween-80
[8] = dose: 6.25 mg/kg/injection, schedule: Q01DX009 (ip), vehicle: Klucel (hydroxypropylcellulose) (HPC)
[9] = dose: 12.5 mg/kg/injection, schedule: Q01DX009 (ip), vehicle: Klucel (hydroxypropylcellulose) (HPC)
[10] = dose: 25.0 mg/kg/injection, schedule: Q01DX009 (ip), vehicle: Klucel (hydroxypropylcellulose) (HPC)
[11] = dose: 100.0 mg/kg/injection, schedule: Q04DX003 (ip), vehicle: saline with Tween-80
[12] = dose: 200.0 mg/kg/injection, schedule: Q04DX003 (ip), vehicle: saline with Tween-80
[13] = dose: 50.0 mg/kg/injection, schedule: Q01DX005 (ip), vehicle: saline with Tween-80
[14] = dose: 100.0 mg/kg/injection, schedule: Q01DX005 (ip), vehicle: saline with Tween-80
[15] = dose: 200.0 mg/kg/injection, schedule: Q01DX005 (ip), vehicle: saline with Tween-80
[16] = dose: 50.0 mg/kg/injection, schedule: Q01DX009 (ip), vehicle: saline
[17] = dose: 200.0 mg/kg/injection, schedule: Q01DX009 (ip), vehicle: saline

Measured: T/C

CC1C(=O)OC(C(O)C(C)(O)C2C(O)CC3C4CC5OC56C(O)C=CC(=O)C6(C)C4CCC32C)C1C (configuration not stated)
inactive: dose: 1.25 mg/kg/injection, schedule: Q01DX009 (ip), vehicle: Klucel (hydroxypropylcellulose) (HPC) 108 % of control | dose: 2.5 mg/kg/injection, schedule: Q01DX009 (ip), vehicle: Klucel (hydroxypropylcellulose) (HPC) 103 % of control | dose: 5.0 mg/kg/injection, schedule: Q01DX009 (ip), vehicle: Klucel (hydroxypropylcellulose) (HPC) 105 % of control | dose: 10.0 mg/kg/injection, schedule: Q01DX009 (ip), vehicle: Klucel (hydroxypropylcellulose) (HPC) 108 % of control

O/N=C/c1cccc[n+]1Cc1ccccc1
inactive: dose: 1.56 mg/kg/injection, schedule: Q01DX009 (ip), vehicle: water 102 % of control | dose: 3.13 mg/kg/injection, schedule: Q01DX009 (ip), vehicle: water 101 % of control | dose: 6.25 mg/kg/injection, schedule: Q01DX009 (ip), vehicle: water 102 % of control | dose: 12.5 mg/kg/injection, schedule: Q01DX009 (ip), vehicle: water 102 % of control | dose: 25.0 mg/kg/injection, schedule: Q01DX009 (ip), vehicle: water 107 % of control

O=Cc1cc(O)ccc1O
inactive: [1] 103 % of control and 114 % of control

OC1c2cc(Cl)ccc2-c2c(N=Cc3ccc4c(c3)OCO4)cc(Cl)cc21 (configuration not stated)
inactive: [2] 91 % of control | [3] 99 % of control | [4] 98 % of control

Cc1ccc(S(=O)(=O)Nc2ccccc2OCCN(CCOc2ccccc2NS(=O)(=O)c2ccc(C)cc2)S(=O)(=O)c2ccc(C)cc2)cc1
inactive: [5] 96 % of control | [6] 99 % of control | [7] 93 % of control

NNC(=O)CNC(=O)Nc1cccc(C(F)(F)F)c1
inactive: [5] 100 % of control | [6] 92 % of control | [7] 100 % of control

COC(=O)c1cc(-c2ccco2)c2c(=O)n(-c3ccccc3)[nH]c2n1
inactive: [2] 103 % of control | [3] 105 % of control | [4] 94 % of control

C1CCC2=NCCCN2CC1
inactive: [8] 107 % of control | [9] 103 % of control | [10] 105 % of control

O=C1N(c2ccccc2)C(=Nc2ccccc2)C(=Nc2ccccc2)N1c1ccccc1
inactive: dose: 50.0 mg/kg/injection, schedule: Q01DX005 (ip), vehicle: Klucel + Tween-80 96 % of control | dose: 100.0 mg/kg/injection, schedule: Q01DX005 (ip), vehicle: Klucel + Tween-80 91 % of control | dose: 200.0 mg/kg/injection, schedule: Q01DX005 (ip), vehicle: Klucel + Tween-80 92 % of control

O=C(NC1=NN(Cc2ccccc2)C(=O)C1)c1ccc(S(=O)(=O)F)cc1
inactive: [2] 113 % of control | [3] 121 % of control

Cc1cc(SCC(=O)c2ccc(Br)cc2)cc(C)[o+]1
inactive: [5] 100 % of control | [6] 86 % of control | [11] 104 % of control | [12] 114 % of control

C/C=C1/C[N+]2(C)CCC34c5ccccc5NC32C(O)CC1C4(CO)C(=O)OC (configuration not stated)
inactive: dose: 2.0 mg/kg/injection, schedule: Q01DX009 (ip), vehicle: saline 109 % of control | dose: 4.0 mg/kg/injection, schedule: Q01DX009 (ip), vehicle: saline 106 % of control | dose: 8.0 mg/kg/injection, schedule: Q01DX009 (ip), vehicle: saline 100 % of control | dose: 16.0 mg/kg/injection, schedule: Q01DX009 (ip), vehicle: saline 106 % of control

CN1C(=O)C2C=CC1c1ccccc12 (configuration not stated)
inactive: dose: 100.0 mg/kg/injection, schedule: Q04DX003 (ip), vehicle: saline 104 % of control | dose: 200.0 mg/kg/injection, schedule: Q04DX003 (ip), vehicle: saline 106 % of control | dose: 400.0 mg/kg/injection, schedule: Q04DX003 (ip), vehicle: saline 99 % of control

Cc1cc(NC(=O)COCC(=O)O)no1
inactive: dose: 60.0 mg/kg/injection, schedule: Q01DX005 (ip), vehicle: Klucel (hydroxypropylcellulose) (HPC) 101 % of control | dose: 120.0 mg/kg/injection, schedule: Q01DX005 (ip), vehicle: Klucel (hydroxypropylcellulose) (HPC) 101 % of control | dose: 240.0 mg/kg/injection, schedule: Q01DX005 (ip), vehicle: Klucel (hydroxypropylcellulose) (HPC) 92 % of control

CC1=Nc2ccccc2N(C)/C1=C/C1=CC(=O)c2ccccc2C1=O
inactive: [11] 108 % of control | [12] 117 % of control

COC(=O)C1=C(C(=O)OC)C2C=CC1C1C(Cl)C(Cl)C21 (configuration not stated)
inactive: dose: 7.5 mg/kg/injection, schedule: Q01DX009 (ip), vehicle: saline with Tween-80 103 % of control | dose: 15.0 mg/kg/injection, schedule: Q01DX009 (ip), vehicle: saline with Tween-80 112 % of control | dose: 30.0 mg/kg/injection, schedule: Q01DX009 (ip), vehicle: saline with Tween-80 115 % of control | [6] 95 % of control | [7] 90 % of control

CN1C(=O)C2CC(=O)N(Cc3ccccc3)C(=O)C2C1=O (configuration not stated)
inactive: [13] 96 % of control | [14] 87 % of control | [15] 87 % of control

Cc1ccccc1N=Nc1c(O)n(-c2ccc(Br)cc2)c(=S)n(-c2ccccc2)c1=O
inactive: dose: 100.0 mg/kg/injection, schedule: Q01DX001 (ip), vehicle: saline with Tween-80 98 % of control | dose: 200.0 mg/kg/injection, schedule: Q01DX001 (ip), vehicle: saline with Tween-80 98 % of control | dose: 400.0 mg/kg/injection, schedule: Q01DX001 (ip), vehicle: saline with Tween-80 89 % of control

COC(=O)C1=COC(C)C2CN3CCc4c([nH]c5cc(OC)c(OC)cc45)C3CC12 (configuration not stated)
inactive: [13] 101 % of control | [14] 102 % of control | [15] 115 % of control

Cc1ccc2nc(N(C)C)cc(N(C)C)c2c1
inactive: [8] 99 % of control | [9] 110 % of control | [10] 103 % of control

C[Si](C)(C)O/C=C1/CCOC1=O
inactive: [16] 100 % of control and 87 % of control | [1] 98 % of control and 104 % of control | [17] 120 % of control | dose: 300.0 mg/kg/injection, schedule: Q01DX009 (ip), vehicle: saline 114 % of control

CCCC[N+]1([O-])CCOCC1
inactive: [16] 104 % of control | [1] 100 % of control | [17] 107 % of control

CSc1nc(N)c(C(=O)N2CCCCC2)s1
inactive: dose: 50.0 mg/kg/injection, schedule: Q01DX009 (ip), vehicle: Klucel (hydroxypropylcellulose) (HPC) 100 % of control | dose: 100.0 mg/kg/injection, schedule: Q01DX009 (ip), vehicle: Klucel (hydroxypropylcellulose) (HPC) 100 % of control | dose: 200.0 mg/kg/injection, schedule: Q01DX009 (ip), vehicle: Klucel (hydroxypropylcellulose) (HPC) 89 % of control

CN(C)C(=O)Cn1cc([N+](=O)[O-])sc1=NC(=O)c1ccncc1
inactive: dose: 100.0 mg/kg/injection, schedule: Q01DX001 (ip), vehicle: saline 93 % of control | dose: 200.0 mg/kg/injection, schedule: Q01DX001 (ip), vehicle: saline 109 % of control | dose: 400.0 mg/kg/injection, schedule: Q01DX001 (ip), vehicle: saline 105 % of control

Nc1cc(=O)[nH]c(O)c1C(=O)O
inactive: dose: 25.0 mg/kg/injection, schedule: Q01DX009 (ip), vehicle: saline with Tween-80 95 % of control

FC(F)(F)c1ccc2nc(Cl)[nH]c2c1
inactive: [13] 98 % of control | [14] 98 % of control

O=C(N/N=C/c1ccco1)C(=O)Nc1ccc(Cl)c([N+](=O)[O-])c1
inactive: [13] 91 % of control | [14] 89 % of control | [15] 105 % of control
